Results as given in ChEMBL document CHEMBL1201862, “PubChem BioAssay data set” (2004).
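Values below derive from 48-hour exposures of cells grown in 96-well plates, with endpoints linearly interpolated between the two concentrations bracketing the appropriate inhibition level. GI50 = concentration required for 50% inhibition of growth.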 Activity calls are given as the source filed them. No stated cut-off is given here; in the data, active = GI50 up to about 1.1 µM and inactive = higher.

Assays:
Experiment in all cases: NCI-60 cell line screen, 48 h
786-0 = system: 786-0
A498 = system: A498
A549 = system: A549
ACHN = system: ACHN
BT-549 = system: BT-549
CAKI-1 = system: CAKI-1
CCRF-CEM = system: CCRF-CEM
COLO 205 = system: COLO 205
DU-145 = system: DU-145
EKVX = system: EKVX
HCC 2998 = system: HCC 2998
HCT-116 = system: HCT-116
HCT-15 = system: HCT-15
HOP-62 = system: HOP-62
HT-29 = system: HT-29
Hs-578T = system: Hs-578T
KM12 = system: KM12
LOX IMVI = system: LOX IMVI
M14 = system: M14
MCF7 = system: MCF7
MDA-MB-231 = system: MDA-MB-231
MDA-MB-435 = system: MDA-MB-435
MDA-N = system: MDA-N
Malme-3M = system: Malme-3M
NCI-H226 = system: NCI-H226
NCI-H23 = system: NCI-H23
NCI-H460 = system: NCI-H460
NCI/ADR-RES = system: NCI/ADR-RES
OVCAR-3 = system: OVCAR-3
OVCAR-4 = system: OVCAR-4
OVCAR-5 = system: OVCAR-5
OVCAR-8 = system: OVCAR-8
PC-3 = system: PC-3
RPMI-8226 = system: RPMI-8226
RXF 393 = system: RXF 393
SF-268 = system: SF-268
SF-295 = system: SF-295
SF-539 = system: SF-539
SK-MEL-28 = system: SK-MEL-28
SK-MEL-2 = system: SK-MEL-2
SK-OV-3 = system: SK-OV-3
SN12C = system: SN12C
SNB-19 = system: SNB-19
SNB-75 = system: SNB-75
SW-620 = system: SW-620
T47D = system: T47D
U-251 = system: U-251
UACC-257 = system: UACC-257
UACC-62 = system: UACC-62
UO-31 = system: UO-31
HL-60 = system: HL-60
HOP-92 = system: HOP-92
IGROV-1 = system: IGROV-1
K562 = system: K562
MOLT-4 = system: MOLT-4
NCI-H522 = system: NCI-H522
SK-MEL-5 = system: SK-MEL-5
TK-10 = system: TK-10

`O=[N+]([O-])/C(C(Cl)=C(Cl)Cl)=C(\Nc1cccc2ccccc12)n1nnc2ccccc21` was tested. Which GI50 (786-0) did it give?
Its GI50 is > 100 µM (inactive).

And the GI50 (A498)?
Its GI50 is 33.5 µM (inactive).

What about the GI50 (A549) of the same compound?
The GI50 was 77.3 µM (inactive).

What about the GI50 (ACHN) of the same compound?
Its GI50 is > 100 µM (inactive).

What about the GI50 (BT-549) of the same compound?
Its GI50 is 21.7 µM (inactive).

What about the GI50 (CAKI-1) of the same compound?
The GI50 was > 100 µM (inactive).

And the GI50 (CCRF-CEM)?
The GI50 was 28.9 µM (inactive).

What about the GI50 (COLO 205) of the same compound?
The GI50 was 21.5 µM (inactive).

What about the GI50 (DU-145) of the same compound?
Its GI50 is > 100 µM (inactive).

What about the GI50 (EKVX) of the same compound?
The GI50 was > 100 µM (inactive).

What about the GI50 (HCC 2998) of the same compound?
The GI50 was > 100 µM (inactive).

And the GI50 (HCT-116)?
The GI50 was 34.1 µM (inactive).

And the GI50 (HCT-15)?
Its GI50 is 58.2 µM.

And the GI50 (HOP-62)?
The GI50 was 32.4 µM (inactive).

What about the GI50 (HT-29) of the same compound?
Its GI50 is 63.5 µM (inactive).

And the GI50 (Hs-578T)?
Its GI50 is 9.31 µM (inactive).

What about the GI50 (KM12) of the same compound?
The GI50 was 30.7 µM (inactive).

And the GI50 (LOX IMVI)?
The GI50 was 35.4 µM (inactive).

And the GI50 (M14)?
Its GI50 is > 100 µM (inactive).

And the GI50 (MCF7)?
The GI50 was 41.5 µM (inactive).

What about the GI50 (MDA-MB-231) of the same compound?
The GI50 was 47.1 µM (inactive).

What about the GI50 (MDA-MB-435) of the same compound?
Its GI50 is 53.7 µM (inactive).

And the GI50 (MDA-N)?
The GI50 was > 100 µM (inactive).

And the GI50 (Malme-3M)?
Its GI50 is 68.5 µM (inactive).

And the GI50 (NCI-H226)?
The GI50 was 71.3 µM (inactive).

What about the GI50 (NCI-H23) of the same compound?
The GI50 was 37.6 µM (inactive).

And the GI50 (NCI-H460)?
Its GI50 is 63.4 µM (inactive).

And the GI50 (NCI/ADR-RES)?
Its GI50 is 78.3 µM (inactive).

And the GI50 (OVCAR-3)?
The GI50 was 46.8 µM (inactive).

What about the GI50 (OVCAR-4) of the same compound?
The GI50 was 33.3 µM (inactive).

And the GI50 (OVCAR-5)?
Its GI50 is 42 µM (inactive).

What about the GI50 (OVCAR-8) of the same compound?
Its GI50 is 73.6 µM (inactive).

And the GI50 (PC-3)?
The GI50 was 47.1 µM (inactive).

What about the GI50 (RPMI-8226) of the same compound?
The GI50 was 23.3 µM (inactive).

And the GI50 (RXF 393)?
Its GI50 is 19.1 µM (inactive).

What about the GI50 (SF-268) of the same compound?
Its GI50 is 48 µM (inactive).

And the GI50 (SF-295)?
Its GI50 is 32.1 µM (inactive).

And the GI50 (SF-539)?
Its GI50 is > 100 µM (inactive).

And the GI50 (SK-MEL-28)?
The GI50 was > 100 µM (inactive).

What about the GI50 (SK-MEL-2) of the same compound?
The GI50 was 38.4 µM (inactive).

What about the GI50 (SK-OV-3) of the same compound?
The GI50 was 68.7 µM (inactive).

What about the GI50 (SN12C) of the same compound?
Its GI50 is > 100 µM (inactive).

And the GI50 (SNB-19)?
The GI50 was 32.9 µM (inactive).

What about the GI50 (SNB-75) of the same compound?
Its GI50 is 86.5 µM (inactive).

And the GI50 (SW-620)?
Its GI50 is 58.5 µM (inactive).

And the GI50 (T47D)?
Its GI50 is > 100 µM (inactive).

What about the GI50 (U-251) of the same compound?
The GI50 was 33 µM (inactive).

And the GI50 (UACC-257)?
The GI50 was > 100 µM (inactive).

And the GI50 (UACC-62)?
The GI50 was 40.9 µM (inactive).

What about the GI50 (UO-31) of the same compound?
The GI50 was 98.4 µM (inactive).

What does the source list for `C1=C2C3=[N+](CCCCC3)CC2Cc2ccsc21` (stereo not given)?
GI50 (786-0): > 100 µM (inactive); GI50 (A498): 39.8 µM (inactive); GI50 (A549): 21.5 µM (inactive); GI50 (ACHN): > 100 µM (inactive); GI50 (BT-549): 51.2 µM (inactive); GI50 (CAKI-1): > 100 µM (inactive); GI50 (CCRF-CEM): > 100 µM (inactive); GI50 (COLO 205): 40.6 µM (inactive); GI50 (DU-145): > 100 µM (inactive); GI50 (EKVX): 53.5 µM (inactive); GI50 (HCT-116): > 100 µM (inactive); GI50 (HCT-15): > 100 µM; GI50 (HL-60): 66.1 µM (inactive); GI50 (HOP-62): > 100 µM (inactive); GI50 (HOP-92): 76.7 µM (inactive); GI50 (HT-29): 32.8 µM (inactive); GI50 (Hs-578T): > 100 µM (inactive); GI50 (IGROV-1): > 100 µM (inactive); GI50 (K562): > 100 µM (inactive); GI50 (KM12): 30.4 µM (inactive); GI50 (LOX IMVI): 84.7 µM (inactive); GI50 (M14): > 100 µM (inactive); GI50 (MCF7): 50.1 µM (inactive); GI50 (MDA-MB-231): > 100 µM (inactive); GI50 (MDA-MB-435): 60.3 µM (inactive); GI50 (MDA-N): > 100 µM (inactive); GI50 (MOLT-4): > 100 µM (inactive); GI50 (Malme-3M): 39.9 µM (inactive); GI50 (NCI-H226): > 100 µM (inactive); GI50 (NCI-H23): 49.9 µM (inactive); GI50 (NCI-H460): 29.9 µM (inactive); GI50 (NCI-H522): 39.7 µM (inactive); GI50 (NCI/ADR-RES): > 100 µM (inactive); GI50 (OVCAR-3): 56.5 µM (inactive); GI50 (OVCAR-4): 43.4 µM (inactive); GI50 (OVCAR-5): > 100 µM (inactive); GI50 (OVCAR-8): 76.6 µM (inactive); GI50 (PC-3): 39.5 µM (inactive); GI50 (RXF 393): > 100 µM (inactive); GI50 (SF-268): 76.2 µM (inactive); GI50 (SF-295): 44.3 µM (inactive); GI50 (SK-MEL-28): > 100 µM (inactive); GI50 (SK-MEL-2): > 100 µM (inactive); GI50 (SK-MEL-5): 53 µM (inactive); GI50 (SK-OV-3): > 100 µM (inactive); GI50 (SN12C): 67.9 µM (inactive); GI50 (SNB-19): 81.1 µM (inactive); GI50 (SNB-75): 29.9 µM (inactive); GI50 (SW-620): 93.5 µM (inactive); GI50 (T47D): 63.5 µM (inactive); GI50 (TK-10): 59.8 µM (inactive); GI50 (U-251): 17.2 µM (inactive); GI50 (UACC-257): 23.3 µM (inactive); GI50 (UACC-62): > 100 µM (inactive); GI50 (UO-31): > 100 µM (inactive)
